From ChEMBL document CHEMBL4041541, “Solvent free, catalyst free, microwave or grinding assisted synthesis of bis-cyclic imide derivatives and their evaluation for anticancer activity” (Bioorg Med Chem Lett, 2017) come the findings set out here.

Experiment [1] deals with T47D. The experiment is described as follows: Growth inhibition of human T47D cells at 1 x 10^-5 M after 24 hrs by MTT assay relative to control. Format: functional. The settings on record: read-out: GI.
Experiment [2] deals with NCI-H522. The experiment is described as follows: Growth inhibition of human NCI-H522 cells at 1 x 10^-5 M after 24 hrs by MTT assay relative to control. Type of experiment: functional. Particulars: NCI-H522, 24 h, read-out: GI. On the technique in general: Formazan colour is commonly taken as a measure of viable cells.
The test system of experiment [3] is HCT-15. Briefly: Growth inhibition of human HCT15 cells at 1 x 10^-5 M after 24 hrs by MTT assay relative to control. Type of experiment: functional. The settings on record: HCT-15, 24 h, read-out: GI.
In experiment [4] the test system is PA-1. Briefly: Growth inhibition of human PA1 cells at 1 x 10^-5 M after 24 hrs by MTT assay relative to control. Type of experiment: functional. Particulars: PA-1, 24 h, read-out: GI.
The test system of experiment [5] is HepG2. The experiment is described as follows: Growth inhibition of human HepG2 cells at 1 x 10^-5 M after 24 hrs by MTT assay relative to control. Type of experiment: functional. The settings on record: HepG2, 24 h, read-out: GI.
The subject of experiment [6] is T47D. Briefly: Growth inhibition of human T47D cells after 24 hrs by MTT assay. Type of experiment: functional, cell-based.
Experiment [7] has as its system NCI-H522. The experiment is described as follows: Growth inhibition of human NCI-H522 cells after 24 hrs by MTT assay. Format: functional, cell-based. The settings on record: NCI-H522, 24 h.
Experiment [8] deals with HCT-15. Briefly: Growth inhibition of human HCT15 cells after 24 hrs by MTT assay. Type of experiment: functional, cell-based. Particulars: HCT-15, 24 h.
Experiment [9] deals with PA-1. The experiment is described as follows: Growth inhibition of human PA1 cells after 24 hrs by MTT assay. The settings on record: PA-1, 24 h. Format: functional, cell-based.
Experiment [10] concerns HepG2. Briefly: Growth inhibition of human HepG2 cells after 24 hrs by MTT assay. The settings on record: HepG2, 24 h. Type of experiment: functional, cell-based.
The test system of the next experiment is HEK-293T. The experiment is described as follows: Growth inhibition of HEK293T cells after 24 hrs by MTT assay. Format: cell-based. The settings on record: Homo sapiens.
Experiment [11] can be described thus: Selectivity index, ratio of IC50 for HEK293T cells to IC50 for human T47D cells. Format: functional.
Experiment [12] in a line: Selectivity index, ratio of IC50 for HEK293T cells to IC50 for human NCI-H522 cells. Format: functional.
Experiment [13] is described as follows: Selectivity index, ratio of IC50 for HEK293T cells to IC50 for human HCT15 cells. Type of experiment: functional.
Experiment [14] can be described thus: Selectivity index, ratio of IC50 for HEK293T cells to IC50 for human PA1 cells. Format: functional.
Experiment [15] in a line: Selectivity index, ratio of IC50 for HEK293T cells to IC50 for human HepG2 cells. Type of experiment: functional.

Bounds are passed on as bounds.

The term IC50 denotes the concentration needed to halve the response being measured. In the case of `O=C1C2CC=CCC2C(=O)N1c1ccc(S(=O)(=O)c2ccc(N3C(=O)C4CC=CCC4C3=O)cc2)cc1` (stereo unspecified), the inhibition of growth at 10 µM was found to be 41% with T47D [1]; 56% in the experiment with NCI-H522 [2]; 51% in the experiment on HCT-15 [3]; 41% in the experiment on PA-1 [4]; 19% in the experiment on HepG2 [5]. The IC50 in the experiment on T47D [6] came to 31.1 µM; with NCI-H522 [7], 37.1 µM; with HCT-15 [8], 14.4 µM; in the experiment on PA-1 [9], 32.1 µM; in the experiment with HepG2 [10], 18.3 µM; in the experiment with HEK-293T, 42.2 µM. Moreover, the “Ratio IC50” value in [11], in experiment [12], in experiment [13], in experiment [14] and in experiment [15] was 2.5 - 4.5 throughout.

Regarding `O=C1c2nc[nH]c2C(=O)N1CCN1C(=O)c2nc[nH]c2C1=O`, the inhibition of growth at 10 µM in the experiment on T47D [1] amounted to 21%; in the experiment with NCI-H522 [2] it was 56%; with HCT-15 [3], 33%; with PA-1 [4], 24%; in the experiment on HepG2 [5], 38%. The IC50 in the experiment with T47D [6] is 19.1 µM; with NCI-H522 [7], 32.8 µM; in the experiment with HCT-15 [8], 17.9 µM; with PA-1 [9] it was 17.5 µM; with HepG2 [10] it was 24.1 µM; in the experiment on HEK-293T, 62.7 µM. The “Ratio IC50” value in experiment [11], in experiment [12], in [13], in experiment [14] and in [15] was 2.5 - 4.5 throughout.

Take `O=C1C2CC=CCC2C(=O)N1CCOCCOCCN1C(=O)C2CC=CCC2C1=O` (stereo unspecified): the inhibition of growth at 10 µM in the experiment on T47D [1] amounted to 51%; in the experiment on NCI-H522 [2], 59%; with HCT-15 [3] it was 45%; in the experiment on PA-1 [4], 31%; with HepG2 [5], 53%. The IC50 in the experiment with T47D [6] is 14.5 µM; with NCI-H522 [7], 38 µM; in the experiment with HCT-15 [8], 21.1 µM; in the experiment on PA-1 [9], 18.8 µM; with HepG2 [10], 17.3 µM; in the experiment on HEK-293T, 44.2 µM. The “Ratio IC50” value in experiment [11], in experiment [12], in experiment [13], in [14] and in [15] was 2.5 - 4.5 throughout.

For `O=C1C2CCCCC2C(=O)N1CCOCCOCCN1C(=O)C2CCCCC2C1=O` (stereo unspecified), the inhibition of growth at 10 µM was 31% in the experiment on T47D [1]; 29% in the experiment on NCI-H522 [2]; 51% in the experiment on HCT-15 [3]; 25% with PA-1 [4]; 37% with HepG2 [5]. Besides, the IC50 is 15.9 µM with T47D [6]; 32.4 µM in the experiment on NCI-H522 [7]; 23.8 µM in the experiment on HCT-15 [8]; 19 µM with PA-1 [9]; 27.5 µM in the experiment with HepG2 [10]; above 100 µM in the experiment on HEK-293T.

Regarding `O=C1c2nccnc2C(=O)N1CCCC1OCC2(CO1)COC(CCCN1C(=O)c3nccnc3C1=O)OC2` (stereo unspecified), the inhibition of growth at 10 µM with T47D [1] came to 49%; in the experiment on NCI-H522 [2], 43%; in the experiment on HCT-15 [3] it was 35%; in the experiment on PA-1 [4], 20%; in the experiment with HepG2 [5] it was 53%. The IC50 in the experiment on T47D [6] was determined as 20.1 µM; with NCI-H522 [7], 28.2 µM; in the experiment with HCT-15 [8] it was 22.7 µM; in the experiment with PA-1 [9] it was 43.7 µM; with HepG2 [10] it was 12.4 µM; with HEK-293T, 55.9 µM. The “Ratio IC50” value in [11], in experiment [12], in [13], in [14] and in [15] was 2.5 - 4.5 in each case.

For the compound `O=C1C2CCCCC2C(=O)N1c1ccc(S(=O)(=O)c2ccc(N3C(=O)C4CCCCC4C3=O)cc2)cc1` (stereo unspecified), the inhibition of growth at 10 µM with T47D [1] is 51%; in the experiment with NCI-H522 [2], 49%; in the experiment on HCT-15 [3], 65%; in the experiment with PA-1 [4] it was 36%; with HepG2 [5], 57%. Further, the IC50 with T47D [6] was 12.7 µM; in the experiment with NCI-H522 [7] it was 19.6 µM; in the experiment on HCT-15 [8], 63.3 µM; in the experiment on PA-1 [9], 22.6 µM; in the experiment with HepG2 [10], 17.1 µM; with HEK-293T it was 43.6 µM. For the same compound, the “Ratio IC50” value in [11], in experiment [12], in experiment [13], in experiment [14] and in experiment [15] was 2.5 - 4.5 in each case.

For `O=P1(N(CCCl)CCCl)NCCCO1` (stereo unspecified) [CYCLOPHOSPHAMIDE ANHYDROUS], the inhibition of growth at 10 µM with T47D [1] came to 23%; in the experiment with NCI-H522 [2], 11%; with HCT-15 [3], 10%; with PA-1 [4], 24%; in the experiment on HepG2 [5], 22%. For the same compound, the IC50 in the experiment with T47D [6] was 69 µM; in the experiment with NCI-H522 [7] it was 69.9 µM; with HCT-15 [8], 76.3 µM; with HepG2 [10], 52.3 µM; in the experiment on HEK-293T, above 100 µM.
